Measured values as given in ChEMBL document CHEMBL3393000, “Synthesis and anticancer activity of some 8-substituted-7-methoxy-2H-chromen-2-one derivatives toward hepatocellular carcinoma HepG2 cells” (Eur J Med Chem, 2015).
Each block holds one compound with its values, some of them ahead of it.

Experiments:
HepG2 [1] = test: Cytotoxicity against human HepG2 cells assessed as reduction in cell viability after 72 hrs by MTT assay; type: functional, cell-based; settings: HepG2, 72 h
[2] = target: Telomerase reverse transcriptase (Homo sapiens) (UniProt O14746); test: Inhibition of telomerase in human HepG2 cells at 1 uM after 2 days by TRAP-ELISA method; type: cell-based
[3] = target: Telomerase reverse transcriptase (Homo sapiens) (UniProt O14746); test: Inhibition of telomerase in human HepG2 cells at 1 uM after 3 days by TRAP-ELISA method; type: cell-based
[4] = target: Telomerase reverse transcriptase (Homo sapiens) (UniProt O14746); test: Inhibition of telomerase in human HepG2 cells at 2 uM after 1 day by TRAP-ELISA method; type: cell-based
[5] = target: Telomerase reverse transcriptase (Homo sapiens) (UniProt O14746); test: Inhibition of telomerase in human HepG2 cells at 2 uM after 2 days by TRAP-ELISA method; type: cell-based
[6] = target: Telomerase reverse transcriptase (Homo sapiens) (UniProt O14746); test: Inhibition of telomerase in human HepG2 cells at 2 uM after 3 days by TRAP-ELISA method; type: cell-based
[7] = target: Telomerase reverse transcriptase (Homo sapiens) (UniProt O14746); test: Inhibition of telomerase in human HepG2 cells at 4 uM after 1 day by TRAP-ELISA method; type: cell-based
[8] = target: Telomerase reverse transcriptase (Homo sapiens) (UniProt O14746); test: Inhibition of telomerase in human HepG2 cells at 4 uM after 2 days by TRAP-ELISA method; type: cell-based
[9] = target: Telomerase reverse transcriptase (Homo sapiens) (UniProt O14746); test: Inhibition of telomerase in human HepG2 cells at 4 uM after 3 days by TRAP-ELISA method; type: cell-based
[10] = target: Telomerase reverse transcriptase (Homo sapiens) (UniProt O14746); test: Inhibition of telomerase in human HepG2 cells at 1 to 4 uM after 1 to 3 days by TRAP-ELISA method; type: cell-based
[11] = target: Telomerase reverse transcriptase (Homo sapiens) (UniProt O14746); test: Inhibition of telomerase in human HepG2 cells at 1 uM after 1 day by TRAP-ELISA method; type: cell-based
HepG2 [12] = test: Induction of apoptosis in human HepG2 cells at 0.01 umol/ml after 24 hrs by annexin V-FITC/propidium iodide staining based flow cytometry (reference value: 0.54%); type: functional
HepG2 [13] = test: Induction of apoptosis in human HepG2 cells at 0.02 umol/ml after 24 hrs by annexin V-FITC/propidium iodide staining based flow cytometry (reference value: 0.54%); type: functional
HepG2 [14] = test: Induction of apoptosis in human HepG2 cells at 0.04 umol/ml after 24 hrs by annexin V-FITC/propidium iodide staining based flow cytometry (reference value: 0.54%); type: functional
HepG2 [15] = test: Induction of apoptosis in human HepG2 cells at 0.08 umol/ml after 24 hrs by annexin V-FITC/propidium iodide staining based flow cytometry (reference value: 0.54%); type: functional
HepG2 [16] = test: Induction of apoptosis in human HepG2 cells at 0.01 to 0.08 umol/ml after 24 hrs by annexin V-FITC/propidium iodide staining based flow cytometry; type: functional, cell-based

Chain of Telomerase reverse transcriptase (Homo sapiens) (O14746 whole entry): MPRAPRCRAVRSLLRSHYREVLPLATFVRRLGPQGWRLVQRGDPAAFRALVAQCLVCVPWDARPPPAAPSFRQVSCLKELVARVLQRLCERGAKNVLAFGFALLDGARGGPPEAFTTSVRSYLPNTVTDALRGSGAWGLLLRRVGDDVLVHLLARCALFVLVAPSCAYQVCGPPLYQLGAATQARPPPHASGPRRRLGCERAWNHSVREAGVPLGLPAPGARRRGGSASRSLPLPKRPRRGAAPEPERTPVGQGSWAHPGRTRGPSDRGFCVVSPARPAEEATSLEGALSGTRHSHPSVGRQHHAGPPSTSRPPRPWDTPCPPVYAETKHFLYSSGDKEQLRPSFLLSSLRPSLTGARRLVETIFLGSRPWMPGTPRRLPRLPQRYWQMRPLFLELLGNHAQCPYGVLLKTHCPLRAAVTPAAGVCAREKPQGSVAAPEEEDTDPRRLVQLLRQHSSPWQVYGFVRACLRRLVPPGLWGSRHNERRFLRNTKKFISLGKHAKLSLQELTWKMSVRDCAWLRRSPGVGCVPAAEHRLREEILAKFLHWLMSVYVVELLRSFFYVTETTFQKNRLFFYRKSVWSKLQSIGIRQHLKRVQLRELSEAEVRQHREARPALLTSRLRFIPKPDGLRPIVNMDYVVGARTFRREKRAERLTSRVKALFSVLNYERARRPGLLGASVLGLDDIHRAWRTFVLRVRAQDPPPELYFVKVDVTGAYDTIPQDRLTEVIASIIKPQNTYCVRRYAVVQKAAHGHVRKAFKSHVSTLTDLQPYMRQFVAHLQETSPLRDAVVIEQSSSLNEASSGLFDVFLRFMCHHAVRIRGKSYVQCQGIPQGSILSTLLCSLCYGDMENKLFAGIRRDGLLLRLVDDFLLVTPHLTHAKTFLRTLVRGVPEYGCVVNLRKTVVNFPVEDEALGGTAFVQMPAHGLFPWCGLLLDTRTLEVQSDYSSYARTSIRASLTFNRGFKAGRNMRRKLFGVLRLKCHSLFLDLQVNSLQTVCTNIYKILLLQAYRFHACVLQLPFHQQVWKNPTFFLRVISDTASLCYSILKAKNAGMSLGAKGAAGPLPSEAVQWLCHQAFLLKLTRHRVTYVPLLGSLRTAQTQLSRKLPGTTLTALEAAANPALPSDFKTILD

Structure (SMILES): COc1ccc2ccc(=O)oc2c1C(/C=C/c1cccs1)=N/NC(N)=O
IC50 (HepG2 [1]): 75 nM

Structure (SMILES): COc1ccc2ccc(=O)oc2c1C1=NN(C(C)=O)C(c2ccc(C(F)(F)F)cc2)C1 (configuration not stated)
IC50 (HepG2 [1]): 80 nM

inhibition [2]: 19.4%
inhibition [3]: 26.1%
inhibition [4]: 20.1%
inhibition [5]: 30%
inhibition [6]: 40.3%
inhibition [7]: 28%
inhibition [8]: 56.6%
inhibition [9]: 68.3%
inhibition [10]: Dose-dependent effect
inhibition [11]: 16.8%
Structure (SMILES): COc1ccc2ccc(=O)oc2c1C1=NN(c2ccccc2)C(c2cccs2)C1 (configuration not stated)
IC50 (HepG2 [1]): 15 nM

Structure (SMILES): COc1ccc2ccc(=O)oc2c1C1=NN(c2ccccc2)C(c2ccc(C(F)(F)F)cc2)C1 (configuration not stated)
IC50 (HepG2 [1]): 38 nM

Structure (SMILES): COc1ccc2ccc(=O)oc2c1C(/C=C/c1ccc(C)cc1)=N/NC(N)=O
IC50 (HepG2 [1]): 93 nM

Structure (SMILES): COc1ccc2ccc(=O)oc2c1C(/C=C/c1ccccc1)=N/NC(N)=O
IC50 (HepG2 [1]): 82 nM

Structure (SMILES): COc1ccc2ccc(=O)oc2c1C1=NN(C(N)=O)C(c2cccs2)C1 (configuration not stated)
IC50 (HepG2 [1]): 26 nM

Structure (SMILES): COc1ccc2ccc(=O)oc2c1CC=C(C)C [OSTHOLE]
IC50 (HepG2 [1]): 161000 nM

Structure (SMILES): COc1cccc2c1C(=O)c1c(O)c3c(c(O)c1C2=O)C[C@@](O)(C(=O)CO)C[C@@H]3O[C@H]1C[C@H](N)[C@H](O)[C@H](C)O1 [DOXORUBICIN]
IC50 (HepG2 [1]): 630 nM

inhibition [2]: 21.5%
inhibition [3]: 28.9%
inhibition [4]: 22.3%
inhibition [5]: 33.1%
inhibition [6]: 44.6%
inhibition [7]: 31%
inhibition [8]: 62.6%
inhibition [9]: 75.5%
inhibition [10]: Dose-dependent effect
inhibition [11]: 18.6%
Structure (SMILES): COc1ccc2ccc(=O)oc2c1C1=NNC(c2cccs2)C1 (configuration not stated)
IC50 (HepG2 [1]): 11 nM

Structure (SMILES): COc1ccc2ccc(=O)oc2c1C1=NN(C(C)=O)C(c2cccs2)C1 (configuration not stated)
IC50 (HepG2 [1]): 75 nM

Structure (SMILES): COc1ccc2ccc(=O)oc2c1C1=NN(c2ccccc2)C(c2ccccc2)C1 (configuration not stated)
IC50 (HepG2 [1]): 73 nM

Structure (SMILES): COc1ccc2ccc(=O)oc2c1C1=NN(c2ccccc2)C(c2ccc(C)cc2)C1 (configuration not stated)
IC50 (HepG2 [1]): 51 nM

inhibition [2]: 22.4%
inhibition [3]: 30.1%
inhibition [4]: 23.2%
inhibition [5]: 34.5%
inhibition [6]: 46.4%
inhibition [7]: 32.3%
inhibition [8]: 65.2%
inhibition [9]: 78.6%
inhibition [10]: Dose-dependent effect
inhibition [11]: 19.4%
Structure (SMILES): COc1ccc2ccc(=O)oc2c1C1=NNC(c2ccc(SC)cc2)C1 (configuration not stated)
Activity (HepG2 [12]): 25.45%
Activity (HepG2 [13]): 35%
Activity (HepG2 [14]): 40.96%
Activity (HepG2 [15]): 46.85%
Activity (HepG2 [16]): Dose-dependent effect
IC50 (HepG2 [1]): 10 nM

Structure (SMILES): COc1ccc2ccc(=O)oc2c1C1=NN(C(N)=O)C(c2ccccc2)C1 (configuration not stated)
IC50 (HepG2 [1]): 90 nM

Structure (SMILES): COc1ccc2ccc(=O)oc2c1C1=NN(C(N)=O)C(c2ccc(C(F)(F)F)cc2)C1 (configuration not stated)
IC50 (HepG2 [1]): 96 nM

Structure (SMILES): COc1ccc2ccc(=O)oc2c1C1=NNC(c2ccc(C)cc2)C1 (configuration not stated)
IC50 (HepG2 [1]): 43 nM

Structure (SMILES): COc1ccc2ccc(=O)oc2c1C1=NNC(c2ccccc2)C1 (configuration not stated)
IC50 (HepG2 [1]): 48 nM

Structure (SMILES): COc1ccc2ccc(=O)oc2c1C(/C=C/c1ccc(SC)cc1)=N/NC(N)=O
IC50 (HepG2 [1]): 99 nM

Structure (SMILES): COc1ccc2ccc(=O)oc2c1C1=NN(C(N)=O)C(c2ccc(C)cc2)C1 (configuration not stated)
IC50 (HepG2 [1]): 46 nM

Structure (SMILES): CN[C@@H]1C[C@H]2O[C@@](C)([C@@H]1OC)n1c3ccccc3c3c4c(c5c6ccccc6n2c5c31)C(=O)NC4
inhibition [2]: 11.3%
inhibition [3]: 15.4%
inhibition [4]: 12.7%
inhibition [5]: 18.9%
inhibition [6]: 28.7%
inhibition [7]: 30.1%
inhibition [8]: 40.1%
inhibition [9]: 56.5%
inhibition [10]: Dose-dependent effect
inhibition [11]: 10.7%

Structure (SMILES): COc1ccc2ccc(=O)oc2c1C1=NN(C(C)=O)C(c2ccccc2)C1 (configuration not stated)
IC50 (HepG2 [1]): 52 nM

Structure (SMILES): COc1ccc2ccc(=O)oc2c1C1=NN(c2ccccc2)C(c2ccc(SC)cc2)C1 (configuration not stated)
IC50 (HepG2 [1]): 78 nM

Structure (SMILES): COc1ccc2ccc(=O)oc2c1C1=NN(C(C)=O)C(c2ccc(C)cc2)C1 (configuration not stated)
IC50 (HepG2 [1]): 50 nM

Structure (SMILES): COc1ccc2ccc(=O)oc2c1C1=NN(C(C)=O)C(c2ccc(SC)cc2)C1 (configuration not stated)
IC50 (HepG2 [1]): 42 nM

Structure (SMILES): COc1ccc2ccc(=O)oc2c1C(/C=C/c1ccc(C(F)(F)F)cc1)=N/NC(N)=O
IC50 (HepG2 [1]): 96 nM

inhibition [2]: 20.2%
inhibition [3]: 27.2%
inhibition [4]: 21%
inhibition [5]: 31.2%
inhibition [6]: 42%
inhibition [7]: 29.2%
inhibition [8]: 59%
inhibition [9]: 71.1%
inhibition [10]: Dose-dependent effect
inhibition [11]: 17.5%
Structure (SMILES): COc1ccc2ccc(=O)oc2c1C1=NNC(c2ccc(C(F)(F)F)cc2)C1 (configuration not stated)
IC50 (HepG2 [1]): 13 nM

inhibition [2]: 17.6%
inhibition [3]: 23.6%
inhibition [4]: 18.2%
inhibition [5]: 27.1%
inhibition [6]: 36.5%
inhibition [7]: 25.3%
inhibition [8]: 51.2%
inhibition [9]: 61.7%
inhibition [10]: Dose-dependent effect
inhibition [11]: 15.2%
Structure (SMILES): COc1ccc2ccc(=O)oc2c1C1=NN(C(N)=O)C(c2ccc(SC)cc2)C1 (configuration not stated)
IC50 (HepG2 [1]): 18 nM
